The values that follow are results of earlier work, collected in patent US20080044439A1, “Compositions and Methods for Preventing and Treating Skin and Hair Conditions” (priority 2004, published 2008).

The subject of this data set is albino guinea pigs.

Turning to `CC(C)Cn1cnc2c(N)nc3ccccc3c21` [imiquimod], the “fading the tattoo, macroscopically and histologically” value (5 percent cream applied every 6 hours for seven days, evaluated at seven and 28 days after tattoo placement, compared with petrolatum, tretinoin 0.025 percent, tretinoin alternated with imiquimod) is given as “most effective regimen for fading the tattoo”. Besides, the “biopsy evaluation of the treated site” value (guinea pig, in vivo) is “epidermal and dermal necrosis with separation, severe inflammation and fibrosis, and disruption of the skin appendages”.
